Measurements reported in patent publication US20090143293A1, “Peptide inhibitors of protein kinase C gamma for pain management” (priority 2002, published 2009).
Entries after “also recorded” stand apart in the source; their conditions may differ. Where two headings read alike, the source gives them in different places.

Assays:
[1] = test system: allodynia and/or hyperalgesia; conditions: capsaicin model; cited from earlier work
[2] = test system: allodynia and/or hyperalgesia; conditions: formalin model; cited from earlier work
[3] = test system: formalin-induced spontaneous pain behaviors; assay: Formalin-induced nociception in rat pups, peptide given before formalin (Example 1); type: in vivo, rat (Sprague-Dawley pups)
Method: In the study detailed in Example 1, the peptide identified herein as SEQ ID NO:4 was administered to rat pups on postnatal days 7, 15, and 21. The peptide was administered 15 minutes prior to intraplantar formalin injection. Following formalin injection, spontaneous pain behaviors were recorded every two minutes for one hour. In this study, an εPKC antagonist peptide from the V1 domain was used as a positive, comparative control. As noted above, the εV1-2 peptide, EVASLKPT (SEQ ID NO:6) has been described, for example, in U.S. Pat. No. 5,783,405 and by Dorn et al. (PNAS, […]:12798 (1999)).
Both the εV1-2 peptide and the γPKC peptide V5-3 (SEQ ID NO:4) were conjugated via terminal cysteine residues to a carrier peptide, Tat (SEQ ID NO:7), for administration. One group of animals was treated with the Tat carrier peptide alone as a control. Another group of animals received only saline as a control.
The results are shown in FIGS. 2A-2C, where average pain scores for rat pups treated with γPKC (closed squares), εPCK (open squares), the Tat carrier peptide alone (open triangles), or saline (open circles) are shown as a function of time, in minutes. The average pain score was determined by a time sampling method, where the animal's behavior was recorded every two minutes. A score of “1” was given if the animal was licking, shaking, or elevating the formalin-treated paw. The three pain scores over a six minute period of observation were summed into a single score, to give a maximum possible score of 3 for each animal for each six minute interval. The average pain score was determined from the individual scores of the animals in each treatment group. FIG. 2A corresponds to the average pain scores for 7 day old rat pups, where 1% formalin was administered to the paw 15 minutes post delivery of the peptide or control substance.
Rat pups (male and female, Sprague-Dawley) were randomly divided at selected days after birth (postnatal days 7, 15, and 21) into groups for treatments. Each group received a PKC V5-domain test peptide, a positive, comparative control peptide, a carrier peptide control, or a saline control. The V5-domain test peptide was a γPKC peptide identified herein as SEQ ID NO:4 and as the comparative control peptide was a V1 domain εPKC peptide identified herein as SEQ ID NO:6. Peptides were reversibly conjugated to a Tat-peptide carrier (SEQ ID NO:7) via a cysteine-cysteine bond at their N termini. The peptides were administered via direct lumbar puncture (intrathecal administration) at the indicated dose, typically a dose of 20 μM PKC peptide in 5 μL (7 day old pups) or 10 μL (15 and 21 day old pups) saline.
Fifteen minutes after administration of the peptides or the control substance, 1% formalin (7 day old pups) or 2.5% formalin (15 and 21 day old pups) was delivered intradermally to the paw. Spontaneous pain behaviors were recorded every two minutes for one hour following formalin injection. The time sampling method for behavioral observation was employed, in which the observer rapidly recorded the behavior of the animals every two minutes (Teng et al., Pain, 76:337 (1998). A score of “1” was given if the animal was licking, shaking, or elevating the hindpaw. A six minute period of observation provided a maximum pain score of “3” for each animal.

[4] = test system: capsaicin-induced nociception; assay: Capsaicin-induced nociception, paw withdrawal latency (Example 2); type: in vivo, rat (adult male Sprague-Dawley); conditions: 10 μM Tat-conjugated peptide intrathecal 15 min before 3% capsaicin, FIG. 3; for response to nociception (paw withdrawal latency): low rate heating
Method: Example 2 describes another study in support of the invention, where a γPKC V5 domain peptide (SEQ ID NO:4) was used for pain management in the capsaicin pain model. As a positive, comparative control, a V1 εPKC peptide (SEQ ID NO:6) was used. The peptides were conjugated to a Tat carrier peptide (SEQ ID NO:7) and were administered intrathecally to test animals prior to application of capsaicin to a paw. […] minutes after capsaicin application, paw withdrawal latency was measured at regular intervals for 75 minutes. The results are shown in FIG. 3, for Tat-derived γPCK (closed squares), Tat-derived-εPCK (open squares), the Tat carrier peptide alone (open triangles), and for animals treated with saline (open circles).
Adult male Sprague-Dawley rats weighing between 200-250 g were lightly anaesthetized with urethane (800 mg/kg, i.p.). The dorsal surface of each animal was painted with India ink to ensure heat was applied evenly to the dorsal surface. Baseline measurements of all animals (n=10/test group) were taken for 45 minutes for both C-fibers (0.9° C./sec heating rate) and Aδ-fibers (6.5° C./sec heating rate). The test V5 peptide was derived from the V5 region of γPKC (SEQ ID NO:4) and was conjugated to a Tat-carrier peptide (SEQ ID NO:7). As a positive comparative control, a peptide from the V1 domain of εPKC (SEQ ID NO:6) was also conjugated to a Tat-carrier peptide (SEQ ID NO:7). The peptides were delivered intrathecally via direct lumbar puncture (10 μM peptide in 20 μL saline) 15 minutes prior to topical application of capsaicin to the left hind paw (100 μL of 3% capsaicin). Saline and the Tat-carrier peptide alone (SEQ ID NO:7) were also administered to two separate groups of control animals. A latency measurement was taken post peptide but prior to capsaicin application to control for direct peptide effect. Twenty minutes after the application of capsaicin, the ink was re-applied, and the dorsal surface of the hind paws was subjected to low rate heating for a maximum of 20 seconds. Foot withdrawal latencies were measured at 15 minute intervals.

pain = conditions: reported in WO 00/01415; listed as εV1-2 peptide; cited from earlier work
εPKC = molecular target: T1, εPKC (Homo sapiens, UniProt Q02156); conditions: reported in the literature; listed as εV1-2 peptide; cited from earlier work
T1 sequence (Q02156 1-737): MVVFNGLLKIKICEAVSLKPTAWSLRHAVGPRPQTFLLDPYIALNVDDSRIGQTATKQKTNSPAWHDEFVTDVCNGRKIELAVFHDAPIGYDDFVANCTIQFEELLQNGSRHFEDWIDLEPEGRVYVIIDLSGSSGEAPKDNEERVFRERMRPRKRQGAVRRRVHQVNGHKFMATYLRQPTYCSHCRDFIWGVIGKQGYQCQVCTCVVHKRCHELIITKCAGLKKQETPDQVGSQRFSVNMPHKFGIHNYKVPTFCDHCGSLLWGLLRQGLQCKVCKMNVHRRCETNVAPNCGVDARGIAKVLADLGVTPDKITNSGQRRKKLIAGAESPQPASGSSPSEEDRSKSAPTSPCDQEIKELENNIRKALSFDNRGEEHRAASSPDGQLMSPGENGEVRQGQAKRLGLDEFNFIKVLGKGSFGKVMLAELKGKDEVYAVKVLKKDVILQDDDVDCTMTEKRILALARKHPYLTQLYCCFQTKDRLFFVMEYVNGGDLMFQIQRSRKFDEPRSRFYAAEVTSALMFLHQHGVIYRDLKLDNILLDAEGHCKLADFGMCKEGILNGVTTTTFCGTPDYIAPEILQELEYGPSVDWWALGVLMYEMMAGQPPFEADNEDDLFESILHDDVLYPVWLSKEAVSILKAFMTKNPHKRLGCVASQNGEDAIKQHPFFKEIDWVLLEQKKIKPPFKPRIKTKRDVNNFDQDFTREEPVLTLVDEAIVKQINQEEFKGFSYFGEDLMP

[5] = test system: formalin-induced spontaneous pain behaviors; assay: Dose response study in the formalin-induced pain model, rats at postnatal days 7, 15, 21; type: in vivo, rat
Excerpt: In postnatal day 21 and older rats, intraplantar formalin produces a stereotypic biphasic behavioral pattern. Phase 1 is characterized by intense shaking, lifting and licking of the offending hindpaw produced by activation of peripheral nociceptors. Activation of descending inhibitory pathways follows, reducing spontaneous pain behaviors (quiescent phase). Quiescence is followed by a second phase, characterized by a revival of pain behaviors, and at least partially mediated by central mechanisms.
A dose response study on rats at postnatal days 7, 15, and 21 using the γPCK V5 peptide identified herein by SEQ ID NO:4. In this study, the average pain scores as a function of time were determined, as described above, using the formalin-induced pain model. The peptide was administered at dosages of 2 μM, 10 μM and 20 μM fifteen minutes […] formalin injection. The results are shown in FIGS. 4A-4C for rats at postnatal day 7 (FIG. 4A), postnatal day 15 (FIG. 4B) and postnatal day 21 (FIG. 4C), where the 2 μM γPKC dose is represented by inverted triangles, the 10 μM dose of γPKC is represented by diamonds, and the 20 μM γPKC dose by circles. The control groups received 10 μM of the Tat carrier peptide and are represented by triangles.

[6] = test system: allodynia and/or hyperalgesia; conditions: neuropathy model; cited from earlier work
[7] = 7 day old rat pups, 1% formalin to paw 15 min after intrathecal Tat-conjugated peptide, FIG. 2A
[8] = 15 day old rat pups, 2.5% formalin 15 min after intrathecal Tat-conjugated peptide, FIG. 2B
[9] = 21 day old rat pups, 2.5% formalin 15 min after intrathecal Tat-conjugated peptide, FIG. 2C
[10] = 2, 10, 20 μM, postnatal days 7, 15, 21, FIGS. 4A-4C

CCCCCCCCCCCCC(=O)N1CCCCC1CNC(=O)C(N)CCCCN (centres unmarked) [NPC15437]
allodynia and/or hyperalgesia induced by the inflammatory agents [1]: reversal of the allodynia and/or hyperalgesia

COc1ccc2c(c[n+](C)c3c4cc5c(cc4ccc23)OCO5)c1OC [chelerythrine]
allodynia and/or hyperalgesia induced by the inflammatory agents [2]: reversal of the allodynia and/or hyperalgesia

EVASLKPT [SEQ ID NO:6, peptide derived from the V1 domain of εPKC, positive comparative control, reference compound]
average pain score relative to control pups [3, 7]: provided a greater attenuation of formalin-induced nociception | average pain score relative to control pups [3, 8]: contribute to nociception relief | average pain score relative to control pups [3, 9]: contribute to nociception relief | reducing the paw withdrawal latency [4]: about 50% | response to nociception (paw withdrawal latency) [4]: anti-hyperalgesic | pain (pain): reported to lessen pain; also recorded: ameliorate pain | selective inhibition of εPKC (εPKC): selective inhibitor of εPKC; also recorded: selectively inhibit PCKε action

RLVLAS (peptide derived from the V5 domain of the gamma isozyme of PKC) [SEQ ID NO:4, peptide derived from the V5 domain of the γ isozyme of PKC]
average pain score relative to control pups [3, 7]: effective to lessen pain | average pain score relative to control pups [3, 8]: effective to alleviate pain | average pain score relative to control pups [3, 9]: provided a reduction in pain | duration of formalin-induced pain ([3]; summary of FIGS. 2A-2C): effectively shortened the duration | formalin-induced spontaneous pain behaviors ([3]; summary of FIGS. 2A-2C, postnatal days 7, 15, 21): attenuated formalin-induced spontaneous pain behaviors | phase 1 of formalin-induced spontaneous pain behaviors [5, 10]: but not phase 1 | phase 2 of formalin-induced spontaneous pain behaviors [5, 10]: attenuated phase 2 | attenuation of phase 2 behaviors ([5]; 7 day old rats, highest dose (20 μM)): mild anti-nociception | duration of phase 2 behaviors ([5]; 15 day old rats): shortened the duration of phase 2 behaviors | duration of phase 2 behaviors ([5]; 21 day old rats): shortened the duration of phase 2 behaviors | attenuation of phase 2 behaviors ([5]; 21 day old rats, all three doses (2, 10, 20 μM)): more robust anti-nociception | response to nociception (paw withdrawal latency) [4]: induced an analgesic effect, producing an increase of threshold in the initial time point | response to nociception (paw withdrawal latency) ([4]; listed as γPKC V5 domain peptide): effective to modulate the response to nociception

calphostin
allodynia and/or hyperalgesia induced by the inflammatory agents [6]: reversal of the allodynia and/or hyperalgesia
